Laboratory results from patent publication US10550105B2 (Ribon Therapeutics Inc., priority 2018, dated 2020).

target: PARP7 (Homo sapiens (Human), UniProt Q7Z3E1); experiment: Enzymatic assay for inhibition of PARP7: TR-FRET displacement of biotinylated Probe A from the TIPARP active site; assay type: binding; conditions: Table A-1
Method in brief: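 Titrated compounds compete with the biotinylated probe; after an additional 30 min incubation at 25° C, time-delayed fluorescence (90 μs) is measured. Inhibition curves use a Hill coefficient that normally floats but may be held at 1.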

Sequence of PARP7 (Q7Z3E1 whole entry): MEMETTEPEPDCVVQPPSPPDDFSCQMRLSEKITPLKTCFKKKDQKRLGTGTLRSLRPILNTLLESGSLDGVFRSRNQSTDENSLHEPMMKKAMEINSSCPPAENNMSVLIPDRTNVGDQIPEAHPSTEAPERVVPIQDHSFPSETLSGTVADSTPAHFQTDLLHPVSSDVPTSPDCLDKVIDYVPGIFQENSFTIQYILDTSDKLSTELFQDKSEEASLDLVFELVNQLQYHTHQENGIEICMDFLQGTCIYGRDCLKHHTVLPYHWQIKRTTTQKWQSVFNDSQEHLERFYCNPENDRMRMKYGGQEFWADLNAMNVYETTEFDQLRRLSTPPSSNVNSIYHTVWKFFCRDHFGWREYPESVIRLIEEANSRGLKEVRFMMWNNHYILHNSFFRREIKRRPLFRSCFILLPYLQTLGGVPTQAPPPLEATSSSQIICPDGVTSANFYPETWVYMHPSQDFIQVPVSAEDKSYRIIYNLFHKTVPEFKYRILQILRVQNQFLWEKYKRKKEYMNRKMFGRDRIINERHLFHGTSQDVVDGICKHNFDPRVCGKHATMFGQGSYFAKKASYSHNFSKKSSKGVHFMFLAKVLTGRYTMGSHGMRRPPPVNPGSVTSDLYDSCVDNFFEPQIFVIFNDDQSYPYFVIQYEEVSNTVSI

`CC(Oc1cccc2c1CN(c1cn[nH]c(=O)c1C(F)(F)F)C2)c1ccncc1` (stereo not shown) [Example 252, 5-(4-(1-(Pyridin-4-yl)ethoxy)isoindolin-2-yl)-4-(trifluoromethyl)pyridazin-3(2H)-one] and `NCCOc1cccc2c1CN(c1cn[nH]c(=O)c1C(F)(F)F)C2` [Example 209, 5-(4-(2-Aminoethoxy)isoindolin-2-yl)-4-(trifluoromethyl)pyridazin-3(2H)-one] cannot be ordered by IC50: under 100 nM for the first, under 100 nM for the second.

`O=C(CCOCCOc1cn[nH]c(=O)c1C(F)(F)F)N1CCN(c2ncc(C(F)(F)F)cn2)CC1` [Example 534, 5-[2-(3-Oxo-3-[4-[5-(trifluoromethyl)pyrimidin-2-yl]piperazin-1-yl]propoxy)ethoxy]-4-(trifluoromethyl)-2,3-dihydropyridazin-3-one] and `C[C@@H](CCOCCC(=O)N1CCN(c2ncc(C(F)(F)F)cn2)CC1)Nc1cn[nH]c(=O)c1C(F)(F)F` [Example 640, (S)-5-((4-(3-Oxo-3-(4-(5-(trifluoromethyl)pyrimidin-2-yl)piperazin-1-yl)propoxy)butan-2-yl)amino)-4-(trifluoromethyl)pyridazin-3(2H)-one] cannot be ordered by IC50: under 100 nM for the first, under 100 nM for the second.

`O=c1[nH]ncc(N2Cc3cccc(CO)c3C2)c1C(F)(F)F` [Example 261, 5-(4-(Hydroxymethyl)isoindolin-2-yl)-4-(trifluoromethyl)pyridazin-3(2H)-one] and `COc1cccc2c1CN(c1cn[nH]c(=O)c1C)C2` [Example 167, 5-(4-Methoxyisoindolin-2-yl)-4-methylpyridazin-3(2H)-one] fall in the same range of IC50: 100 to 1000 nM for the first, 100 to 1000 nM for the second.

`O=C(C[C@@H]1CC[C@H](CNc2cn[nH]c(=O)c2C(F)(F)F)O1)N1CCN(c2ccc(C(F)(F)F)cn2)CC1` (single isomer, unassigned) [Example 546 Isomer D] and `O=C(C[C@H]1CC[C@@H](CNc2cn[nH]c(=O)c2C(F)(F)F)O1)N1CCN(c2ccc(C(F)(F)F)cn2)CC1` (single isomer, unassigned) [Example 546 Isomer C] cannot be ordered by IC50: under 100 nM for the first, under 100 nM for the second.

`N#Cc1cnc(N2CCN(C(=O)c3cccc(OC[C@@H]4CCCN4c4cn[nH]c(=O)c4C(F)(F)F)c3)CC2)nc1` [Example 439, (S)-2-(4-(3-((1-(6-Oxo-5-(trifluoromethyl)-1,6-dihydropyridazin-4-yl)pyrrolidin-2-yl)methoxy)benzoyl)piperazin-1-yl)pyrimidine-5-carbonitrile] and `N#Cc1ccc(N2CCN(C(=O)c3cccc(OCc4cccc5c4CN(c4cn[nH]c(=O)c4C(F)(F)F)C5)c3)CC2)nc1` [Example 488, 6-(4-(3-((2-(6-Oxo-5-(trifluoromethyl)-1,6-dihydropyridazin-4-yl)isoindolin-4-yl)methoxy)benzoyl)piperazin-1-yl)nicotinonitrile] cannot be ordered by IC50: under 100 nM for the first, under 100 nM for the second.

First: O=C(C[C@H]1CC[C@@H](COc2cn[nH]c(=O)c2Cl)O1)N1CCN(c2ncc(Cl)cn2)CC1 (single isomer, unassigned) [Example 566 Isomer C]
Second: N#Cc1ccc(N2CCN(C(=O)C[C@@H]3CCC[C@@H](COc4cn[nH]c(=O)c4C(F)(F)F)O3)CC2)nc1 (single isomer, unassigned) [Example 583 Isomer A]
The IC50 of the first is higher: 100 to 1000 nM for the first, under 100 nM for the second. The second is the more potent here.

`C[C@@H](COCCC(=O)N1CCN(c2ccc(Cl)cn2)CC1)Oc1cn[nH]c(=O)c1C(F)(F)F` (single isomer, unassigned) [Example 539 Isomer A] and `CC[C@@H](COCCC(=O)N1CCN(c2ccc(Cl)cn2)CC1)Nc1cn[nH]c(=O)c1C(F)(F)F` [Example 586, 5-[[(2S)-1-[3-[4-(5-Chloropyridin-2-yl)piperazin-1-yl]-3-oxopropoxy]butan-2-yl]amino]-4-(trifluoromethyl)-2,3-dihydropyridazin-3-one] cannot be ordered by IC50: under 100 nM for the first, under 100 nM for the second.

Compared with `C[C@H](OCCC(=O)N1CCN(c2ccc(C#N)cn2)CC1)[C@@H]1CCCN1c1cn[nH]c(=O)c1C(F)(F)F` [Example 140B, 6-(4-[3-[(1S)-1-[(2S)-1-[6-oxo-5-(trifluoromethyl)-1,6-dihydropyridazin-4-yl]pyrrolidin-2-yl]ethoxy]propanoyl]piperazin-1-yl)pyridine-3-carbonitrile], `Cc1c(N2CCC[C@H]2COCCC(=O)N2CCN(c3ccc(C#N)cn3)CC2)cn[nH]c1=O` [Example 480, (S)-6-(4-(3-((1-(5-Methyl-6-oxo-1,6-dihydropyridazin-4-yl)pyrrolidin-2-yl)methoxy)propanoyl)piperazin-1-yl)nicotinonitrile] is lower in IC50: 100 to 1000 nM for the first, under 100 nM for the second. The second is the more potent here.

`N#Cc1ccc(N2CCN(C(=O)CCOC[C@@H]3c4ncccc4CN3c3cn[nH]c(=O)c3C(F)(F)F)CC2)nc1` [Example 137A, 6-[4-(3-[[(7S)-6-[6-oxo-5-(trifluoromethyl)-1,6-dihydropyridazin-4-yl]-5H,6H,7H-pyrrolo[3,4-b]pyridin-7-yl]methoxy]propanoyl)piperazin-1-yl]pyridine-3-carbonitrile] and `CN(CCC(=O)N1CCN(c2ccc(C#N)cn2)CC1)C[C@@H]1c2ccccc2CN1c1cn[nH]c(=O)c1C(F)(F)F` [Example 427, (S)-6-(4-(3-(Methyl((2-(6-oxo-5-(trifluoromethyl)-1,6-dihydropyridazin-4-yl)isoindolin-1-yl)methyl)amino)propanoyl)piperazin-1-yl)nicotinonitrile] cannot be ordered by IC50: under 100 nM for the first, under 100 nM for the second.

`N#Cc1ccc(N2CCN(C(=O)C[C@H]3CC[C@@H]([C@@H]4c5ccccc5CN4c4cn[nH]c(=O)c4C(F)(F)F)O3)CC2)nc1` (single isomer, unassigned) [Example 612 Isomer B] and `N#Cc1ccc(N2CCN(C(=O)CNCC[C@@H]3c4ccccc4CN3c3cn[nH]c(=O)c3C(F)(F)F)CC2)nc1` [Example 144A, 6-[4-[2-([2-[(1R)-2-[6-oxo-5-(trifluoromethyl)-1,6-dihydropyridazin-4-yl]-2,3-dihydro-1H-isoindol-1-yl]ethyl]amino)acetyl]piperazin-1-yl]pyridine-3-carbonitrile] cannot be ordered by IC50: under 100 nM for the first, under 100 nM for the second.

First: N#Cc1ccc(N2CCN(C(=O)c3cc(OCC4c5ccccc5CN4c4cn[nH]c(=O)c4C(F)(F)F)ccn3)CC2)nc1 (stereo not shown) [Example 355, 6-(4-(4-((2-(6-Oxo-5-(trifluoromethyl)-1,6-dihydropyridazin-4-yl)isoindolin-1-yl)methoxy)picolinoyl)piperazin-1-yl)nicotinonitrile]
Second: O=C(c1cncc(OC[C@H]2c3ccccc3CN2c2cn[nH]c(=O)c2C(F)(F)F)c1)N1CCN(c2ccc(F)cn2)CC1 [Example 387, (R)-5-(1-(((5-(4-(5-Fluoropyridin-2-yl)piperazine-1-carbonyl)pyridin-3-yl)oxy)methyl)isoindolin-2-yl)-4-(trifluoromethyl)pyridazin-3(2H)-one]
The IC50 of the first is lower: under 100 nM for the first, at least 1000 nM for the second.

`C[C@@H](COCCC(=O)N1CCN(c2ncc(C(F)(F)F)cn2)CC1)Sc1cn[nH]c(=O)c1Br` [Example 700, (S)-4-Bromo-5-((1-(3-oxo-3-(4-(5-(trifluoromethyl)pyrimidin-2-yl)piperazin-1-yl)propoxy)propan-2-yl)thio)pyridazin-3(2H)-one] and `N#Cc1ccc(N2CCN(C(=O)CCO[C@@H](CO)COc3cn[nH]c(=O)c3C(F)(F)F)CC2)nc1` (single isomer, unassigned) [Example 573 Isomer A] cannot be ordered by IC50: under 100 nM for the first, under 100 nM for the second.

Going from `CN(CC1c2ccccc2CN1c1cn[nH]c(=O)c1C(F)(F)F)c1cccc(C(=O)O)c1` (stereo not shown) [Example 345, 3-(Methyl((2-(6-oxo-5-(trifluoromethyl)-1,6-dihydropyridazin-4-yl)isoindolin-1-yl)methyl)amino)benzoic acid] to `O=C(c1cccc(OCC2c3ccccc3CN2c2cn[nH]c(=O)c2C(F)(F)F)c1)N1CCN(c2ccc(C(F)(F)F)cn2)CC1` (stereo not shown) [Example 368, 4-(Trifluoromethyl)-5-(1-((3-(4-(5-(trifluoromethyl)pyridin-2-yl)piperazine-1-carbonyl)phenoxy)methyl)isoindolin-2-yl)pyridazin-3(2H)-one], the IC50 falls from at least 1000 nM to under 100 nM.

First: O=c1[nH]ncc(N2Cc3cc(OCCN4CCOCC4)cnc3C2)c1C(F)(F)F [Example 325, 5-(3-(2-Morpholinoethoxy)-5,7-dihydro-6H-pyrrolo[3,4-b]pyridin-6-yl)-4-(trifluoromethyl)pyridazin-3(2H)-one]
Second: N#Cc1ccc(N2CCN(C(=O)COCCOc3cccc4c3CN(c3cn[nH]c(=O)c3C(F)(F)F)C4)CC2)nc1 [Example 490, 6-(4-(2-(2-((2-(6-Oxo-5-(trifluoromethyl)-1,6-dihydropyridazin-4-yl)isoindolin-4-yl)oxy)ethoxy)acetyl)piperazin-1-yl)nicotinonitrile]
The IC50 of the first is higher: 100 to 1000 nM for the first, under 100 nM for the second.

`O=c1[nH]ncc(N2Cc3ccc(OC4CCNCC4)cc3C2)c1Cl` [Example 158, 4-Chloro-5-(5-(piperidin-4-yloxy)isoindolin-2-yl)pyridazin-3(2H)-one] and `CCc1c(N2Cc3cccc(OC4CCNCC4)c3C2)cn[nH]c1=O` [Example 272, 4-Ethyl-5-(4-(piperidin-4-yloxy)isoindolin-2-yl)pyridazin-3(2H)-one] cannot be ordered by IC50: 100 to 1000 nM for the first, at least 1000 nM for the second.

`N#Cc1ccc(N2CCN(C(=O)CCOCCOc3cn[nH]c(=O)c3Br)CC2)nc1` [Example 555, 6-[4-(3-[2-[(5-Bromo-6-oxo-1,6-dihydropyridazin-4-yl)oxy]ethoxy]propanoyl)piperazin-1-yl]pyridine-3-carbonitrile] and `N#Cc1ccc(N2CCN(C(=O)CCCCCNc3cn[nH]c(=O)c3C(F)(F)F)CC2)nc1` [Example 511, 6-[4-(6-[[6-Oxo-5-(trifluoromethyl)-1,6-dihydropyridazin-4-yl]amino]hexanoyl)piperazin-1-yl]pyridine-3-carbonitrile] cannot be ordered by IC50: under 100 nM for the first, under 100 nM for the second.

`N#Cc1ccc(N2CCN(C(=O)COCCOCC3CCN(c4cn[nH]c(=O)c4C(F)(F)F)C3)CC2)nc1` (stereo not shown) [Example 478, 6-(4-(2-(2-((1-(6-Oxo-5-(trifluoromethyl)-1,6-dihydropyridazin-4-yl)pyrrolidin-3-yl)methoxy)ethoxy)acetyl)piperazin-1-yl)nicotinonitrile] and `COc1ccc2c(c1)CN(c1cn[nH]c(=O)c1C)C2` [Example 173, 5-(5-Methoxyisoindolin-2-yl)-4-methylpyridazin-3(2H)-one] fall in the same range of IC50: 100 to 1000 nM for the first, 100 to 1000 nM for the second.
